Reference: ChEMBL document CHEMBL3112450, “Synthesis and in vitro antitumor evaluation of primary amine substituted quinazoline linked benzimidazole” (Bioorg Med Chem Lett, 2014)

Legend:
Type in all cases: functional
[1] = tested on: HCT-116; assay: Cytotoxicity against human HCT116 cells assessed as cell growth at 10^-5 M after 48 hrs by SRB assay; details: HCT-116, 48 h, read-out: Activity
[2] = tested on: A549; assay: Cytotoxicity against human A549 cells assessed as cell growth at 10^-5 M after 48 hrs by SRB assay; details: A549, 48 h, read-out: Activity
[3] = Cytotoxicity against human Hs578T cells assessed as cell growth at 10^-5 M after 48 hrs by SRB assay; details: Hs-578T, read-out: Activity
[4] = tested on: OVCAR-8; assay: Cytotoxicity against human OVCAR8 cells assessed as cell growth at 10^-5 M after 48 hrs by SRB assay; details: OVCAR-8, 48 h, read-out: Activity
[5] = tested on: RXF 393; assay: Cytotoxicity against human RXF393 cells assessed as cell growth at 10^-5 M after 48 hrs by SRB assay; details: RXF 393, 48 h, read-out: Activity
[6] = tested on: MCF7; assay: Cytotoxicity against human MCF7 cells assessed as cell growth at 10^-5 M after 48 hrs by SRB assay; details: MCF7, 48 h, read-out: Activity
[7] = tested on: HOP-92; assay: Cytotoxicity against human HOP92 cells assessed as cell growth at 10^-5 M after 48 hrs by SRB assay; details: HOP-92, 48 h, read-out: Activity
[8] = Cytotoxicity against human OVCAR4 cells assessed as cell growth at 10^-5 M after 48 hrs by SRB assay; details: OVCAR-4, 48 h, read-out: Activity
[9] = tested on: NCI-H460; assay: Cytotoxicity against human NCI-H460 cells assessed as cell growth at 10^-5 M after 48 hrs by SRB assay; details: NCI-H460, 48 h, read-out: Activity
[10] = tested on: NCI-H23; assay: Cytotoxicity against human NCI-H23 cells assessed as cell growth at 10^-5 M after 48 hrs by SRB assay; details: NCI-H23, 48 h, read-out: Activity
[11] = tested on: BT-549; assay: Cytotoxicity against human BT549 cells assessed as cell growth at 10^-5 M after 48 hrs by SRB assay; details: BT-549, 48 h, read-out: Activity
[12] = tested on: HT-29; assay: Cytotoxicity against human HT-29 cells assessed as cell growth at 10^-5 M after 48 hrs by SRB assay; details: HT-29, 48 h, read-out: Activity
[13] = tested on: SR; assay: Cytotoxicity against human SR cells assessed as cell growth at 10^-5 M after 48 hrs by SRB assay; details: read-out: Activity
[14] = tested on: M14; assay: Cytotoxicity against human M14 cells assessed as cell growth at 10^-5 M after 48 hrs by SRB assay; details: M14, 48 h, read-out: Activity
[15] = tested on: MDA-MB-435; assay: Cytotoxicity against human MDA-MB-435 cells assessed as cell growth at 10^-5 M after 48 hrs by SRB assay; details: MDA-MB-435, 48 h, read-out: Activity
[16] = tested on: NCI-H522; assay: Cytotoxicity against human NCI-H522 cells assessed as cell growth at 10^-5 M after 48 hrs by SRB assay; details: NCI-H522, 48 h, read-out: Activity
[17] = tested on: DU-145; assay: Cytotoxicity against human DU145 cells assessed as cell growth at 10^-5 M after 48 hrs by SRB assay; details: DU-145, 48 h, read-out: Activity
[18] = tested on: NCI-H322M; assay: Cytotoxicity against human NCI-H322M cells assessed as cell growth at 10^-5 M after 48 hrs by SRB assay; details: read-out: Activity
[19] = tested on: SNB-19; assay: Cytotoxicity against human SNB19 cells assessed as cell growth at 10^-5 M after 48 hrs by SRB assay; details: SNB-19, 48 h, read-out: Activity
[20] = tested on: CCRF-CEM; assay: Cytotoxicity against human CCRF-CEM cells assessed as cell growth at 10^-5 M after 48 hrs by SRB assay; details: read-out: Activity
[21] = tested on: IGROV-1; assay: Cytotoxicity against human IGROV1 cells assessed as cell growth at 10^-5 M after 48 hrs by SRB assay; details: IGROV-1, 48 h, read-out: Activity
[22] = tested on: A498; assay: Cytotoxicity against human A498 cells assessed as cell growth at 10^-5 M after 48 hrs by SRB assay; details: A498, 48 h, read-out: Activity
[23] = tested on: SN12C; assay: Cytotoxicity against human SN12C cells assessed as cell growth at 10^-5 M after 48 hrs by SRB assay; details: read-out: Activity
[24] = tested on: U-251; assay: Cytotoxicity against human U251 cells assessed as cell growth at 10^-5 M after 48 hrs by SRB assay; details: U-251, 48 h, read-out: Activity
[25] = tested on: TK-10; assay: Cytotoxicity against human TK10 cells assessed as cell growth at 10^-5 M after 48 hrs by SRB assay; details: TK-10, 48 h, read-out: Activity
[26] = tested on: RPMI-8226; assay: Cytotoxicity against human RPMI8226 cells assessed as cell growth at 10^-5 M after 48 hrs by SRB assay; details: RPMI-8226, 48 h, read-out: Activity
[27] = tested on: SF-295; assay: Cytotoxicity against human SF295 cells assessed as cell growth at 10^-5 M after 48 hrs by SRB assay; details: SF-295, 48 h, read-out: Activity
[28] = tested on: MDA-MB-468; assay: Cytotoxicity against human MDA-MB-468 cells assessed as cell growth at 10^-5 M after 48 hrs by SRB assay; details: MDA-MB-468, 48 h, read-out: Activity
[29] = tested on: NCI-H226; assay: Cytotoxicity against human NCI-H226 cells assessed as cell growth at 10^-5 M after 48 hrs by SRB assay; details: NCI-H226, 48 h, read-out: Activity
[30] = tested on: SNB-75; assay: Cytotoxicity against human SNB75 cells assessed as cell growth at 10^-5 M after 48 hrs by SRB assay; details: SNB-75, 48 h, read-out: Activity
[31] = tested on: ACHN; assay: Cytotoxicity against human ACHN cells assessed as cell growth at 10^-5 M after 48 hrs by SRB assay; details: read-out: Activity
[32] = tested on: SW-620; assay: Cytotoxicity against human SW620 cells assessed as cell growth at 10^-5 M after 48 hrs by SRB assay; details: SW-620, 48 h, read-out: Activity
[33] = tested on: MDA-MB-231; assay: Cytotoxicity against human MDA-MB-231 cells assessed as cell growth at 10^-5 M after 48 hrs by SRB assay; details: MDA-MB-231, 48 h, read-out: Activity
[34] = tested on: MOLT-4; assay: Cytotoxicity against human MOLT4 cells assessed as cell growth at 10^-5 M after 48 hrs by SRB assay; details: MOLT-4, 48 h, read-out: Activity
[35] = Cytotoxicity against human NCI-ADR-RES cells assessed as cell growth at 10^-5 M after 48 hrs by SRB assay; details: read-out: Activity
[36] = tested on: HOP-62; assay: Cytotoxicity against human HOP62 cells assessed as cell growth at 10^-5 M after 48 hrs by SRB assay; details: HOP-62, 48 h, read-out: Activity
[37] = tested on: KM12; assay: Cytotoxicity against human KM12 cells assessed as cell growth at 10^-5 M after 48 hrs by SRB assay; details: KM12, 48 h, read-out: Activity

| SMILES | growth at 10 µM [1] [%] | growth at 10 µM [2] [%] | growth at 10 µM [3] [%] | growth at 10 µM [4] [%] | growth at 10 µM [5] [%] | growth at 10 µM [6] [%] | growth at 10 µM [7] [%] | growth at 10 µM [8] [%] | growth at 10 µM [9] [%] | growth at 10 µM [10] [%] | growth at 10 µM [11] [%] | growth at 10 µM [12] [%] | growth at 10 µM [13] [%] | growth at 10 µM [14] [%] | growth at 10 µM [15] [%] | growth at 10 µM [16] [%] | growth at 10 µM [17] [%] | growth at 10 µM [18] [%] | growth at 10 µM [19] [%] | growth at 10 µM [20] [%] | also measured |
| --- | --- | --- | --- | --- | --- | --- | --- | --- | --- | --- | --- | --- | --- | --- | --- | --- | --- | --- | --- | --- | --- |
| C=CCn1c(C)nc2ccc(Nc3nc(Nc4ncccn4)nc4ccccc34)cc21 | 94.2 | 90.3 | 87.7 | 94.3 | 114 | 82.4 | 70.5 | 85.6 | 97.8 | 82.8 | 82.8 | 104 | 121 | 115 | 107 | 98.1 | 112 | 100 | 97.6 | 84.8 | growth at 10 µM [21]: 84.1%; growth at 10 µM [22]: 76.8%; growth at 10 µM [23]: 97.6%; growth at 10 µM [24]: 89.8%; growth at 10 µM [25]: 118%; growth at 10 µM [26]: 70.7%; growth at 10 µM [27]: 86.9%; growth at 10 µM [28]: 78.3%; growth at 10 µM [29]: 92.2%; growth at 10 µM [30]: 78.8%; growth at 10 µM [31]: 103%; growth at 10 µM [32]: 100%; growth at 10 µM [33]: 84.4%; growth at 10 µM [34]: 97.2%; growth at 10 µM [35]: 103%; growth at 10 µM [36]: 84.8%; growth at 10 µM [37]: 106% |
| C=CCn1c(C)nc2ccc(Nc3nc(NCCO)nc4ccccc34)cc21 | 94.7 | 99.9 | 91.5 | 99 | 116 | 93.7 | 73.9 | 88.4 | 103 | 92.7 | 96.5 | 103 | 104 | 111 | 102 | 101 | 107 | 100 | 93.9 | 88.5 | growth at 10 µM [21]: 90.1%; growth at 10 µM [22]: 78.3%; growth at 10 µM [23]: 87.6%; growth at 10 µM [24]: 98.5%; growth at 10 µM [25]: 124%; growth at 10 µM [26]: 95.7%; growth at 10 µM [27]: 146%; growth at 10 µM [28]: 119%; growth at 10 µM [29]: 107%; growth at 10 µM [30]: 92.5%; growth at 10 µM [31]: 104%; growth at 10 µM [32]: 97.7%; growth at 10 µM [33]: 84.5%; growth at 10 µM [34]: 96.7%; growth at 10 µM [35]: 106%; growth at 10 µM [36]: 97.6%; growth at 10 µM [37]: 102% |
| C=CCn1c(C)nc2ccc(Nc3nc(Sc4ccc(N)cc4)nc4ccccc34)cc21 | 93.2 | 89.8 | 98.1 | 63.7 | 144 | 93.2 | 61.1 | 88.5 | 104 | 101 | 87.9 | 97.3 | 90.8 | 109 | 96.9 | 89.5 | 114 | 102 | 93.2 | 65.5 | growth at 10 µM [21]: 102%; growth at 10 µM [22]: 48.5%; growth at 10 µM [23]: 93.9%; growth at 10 µM [24]: 91.3%; growth at 10 µM [25]: 107%; growth at 10 µM [26]: 59.8%; growth at 10 µM [27]: 77.1%; growth at 10 µM [28]: 106%; growth at 10 µM [29]: 109%; growth at 10 µM [30]: 98.2%; growth at 10 µM [31]: 101%; growth at 10 µM [32]: 108%; growth at 10 µM [33]: 80.5%; growth at 10 µM [34]: 88.2%; growth at 10 µM [35]: 97.8%; growth at 10 µM [36]: 104%; growth at 10 µM [37]: 96.8% |
